According to patent publication US11447486B2, “2-amino-benzimidazole derivatives and their use as 5-lipoxygenase and/or prostaglandin E synthase inhibitors” (INSTITUT PASTEUR KOREA, priority 2014, dated 2022):

Experiments:
human 5-LOX = biological target: T1, human 5-LOX (Homo sapiens, UniProt P09917); experiment: 5-LOX enzyme activity, fluorescence method (5-HPETE, H2DCFDA); assay type: biochemical; conditions: read-out: 5-LO (IC50)
T1 construct: purchased Cayman 60402; host or cells: insect cells (lysate)
T1 sequence (P09917 1-674): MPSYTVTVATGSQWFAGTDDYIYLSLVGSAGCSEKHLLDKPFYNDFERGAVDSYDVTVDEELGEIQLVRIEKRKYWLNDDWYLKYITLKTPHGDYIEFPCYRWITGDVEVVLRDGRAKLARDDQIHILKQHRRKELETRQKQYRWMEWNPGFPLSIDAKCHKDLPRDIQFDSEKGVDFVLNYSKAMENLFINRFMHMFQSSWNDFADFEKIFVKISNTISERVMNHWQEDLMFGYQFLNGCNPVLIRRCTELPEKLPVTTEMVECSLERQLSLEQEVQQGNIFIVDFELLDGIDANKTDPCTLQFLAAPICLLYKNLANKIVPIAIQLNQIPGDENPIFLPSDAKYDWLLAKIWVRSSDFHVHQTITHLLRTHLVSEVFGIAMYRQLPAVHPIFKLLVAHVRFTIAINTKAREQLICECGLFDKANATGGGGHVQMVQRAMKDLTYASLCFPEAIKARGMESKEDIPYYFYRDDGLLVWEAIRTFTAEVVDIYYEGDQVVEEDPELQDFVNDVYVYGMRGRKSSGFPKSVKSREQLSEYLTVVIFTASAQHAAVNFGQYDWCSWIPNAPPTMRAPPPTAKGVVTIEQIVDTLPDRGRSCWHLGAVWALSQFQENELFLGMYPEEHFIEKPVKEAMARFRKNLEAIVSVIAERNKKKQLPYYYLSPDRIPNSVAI
Procedure: The activity of compounds against 5-LOX were determined by measuring LTB4 (leukotriene B4) levels and/or by a fluorescence method. Both approaches are outlined in more detail below;
The compound, in a dose response manner(0.5 nM to 10 uM), and enzyme mixture was pre-incubated for 5 minutes, and the enzymatic reaction was initiated by addition of ATP and arachidonic acid to a final concentration of 100 uM and 3 uM, respectively. […] All steps were carried out at room temperature.

[1] = system: Rat basophilic leukemia (RBL) cells; experiment: LTB4 secretion assay in RBL (rat basophilic leukemia cells); assay type: cell-based; conditions: Rattus norvegicus, RBL
Procedure: Rat basophilic leukemia (RBL) cells (ATCC, Cat #CRL-2256) were maintained in EMEM (ATCC, Cat #30-2003) supplemented with 15% FBS. The day before RBL assay, cells were seeded at a concentration of 2×10^4 cells per well in 96-well plates. The media was replaced with 100 ul of EMEM supplemented with 0.5% FBS and compounds in dose response(5 nM to 100 uM) were added. After 15 min of pre-incubation at 37° C., arachidonic acid and calcium ionophore (A23187) were added to give a final concentration of 2.5 uM and 5 uM, respectively. After a further 10 min incubation at 37° C., culture supernatant was transferred and quantification of LTB4 was done with a Leukotriene B4 EIA kit (Cayman, Cat #520111) as instructed.

SMILES	IC50 (human 5-LOX)	EC50 [1]
Cn1c(NCc2ccc(Oc3ccc(OC(F)(F)F)cc3)cc2)nc2ccc(N)cc21 [Compound 292]	< 1 µM	< 10 µM
Cn1c(NCc2ccc(Oc3ccc(OC(F)(F)F)cc3)cc2)nc2ccc(NC3COC3)cc21 [Compound 293]	< 1 µM	< 10 µM
Cn1c(NCc2cc(Cl)c(Oc3ncc(Cl)cn3)cc2Cl)nc2ccc(N)cc21 [Compound 432]	< 1 µM	< 10 µM
Cn1c(NCc2ccc(Oc3ccc(Cl)cn3)cc2F)nc2ccc(N)cc21 [Compound 272]	< 1 µM	< 10 µM
CC(C)(C)Nc1nc2cc(N)ccc2n1CC(=O)Nc1ccc(OC(F)(F)F)cc1 [Compound 69]	1 to 10 µM	< 10 µM
Cn1c(NCc2ccc(Oc3ccc(Cl)cc3)cc2)nc2ccc(NCC#N)cc21 [Compound 171]	< 1 µM	> 20 µM
Nc1ccc2[nH]c(NCc3ccc(N4CCOC(COc5ccc(OC(F)(F)F)cc5)C4)nc3)nc2c1 (stereo not shown) [Compound 222]	< 1 µM	10 to 20 µM
CN(c1ccc(CNc2nc3ccc(N)cc3n2C)cc1)c1ncc(Cl)cn1 [Compound 463]	< 1 µM	< 10 µM
Cn1c(NCc2ccc(Oc3ccc(Cl)cc3)cc2)nc2ccc(N)cc21 [Compound 167]	< 1 µM	> 20 µM
Cn1c(NCc2ccc(Oc3ccc4cc(F)ccc4n3)cc2)nc2ccc(N)cc21 [Compound 382]	< 1 µM	< 10 µM
Nc1ccc2nc(NCc3ccc(C(=O)C4CCCC4)cc3)[nH]c2c1 [Compound 168]	< 1 µM	< 10 µM
Cc1ccc(Oc2ccc(CNc3nc4ccc(NC5COC5)cc4n3C)cc2)nn1 [Compound 312]	< 1 µM	> 20 µM
Cn1c(NCc2ccc(Oc3ccc(Cl)cn3)cc2)nc2ccc(NCCc3ccccn3)cc21 [Compound 329]	< 1 µM	< 10 µM
Cn1c(NCc2ccc(Oc3ccc4ccc(Cl)cc4n3)cc2)nc2ccc(NC3COC3)cc21 [Compound 420]	< 1 µM	< 10 µM
CN(C)c1nc2cc(NCc3ccc(CC(N)=O)cc3)ccc2[nH]1 [Compound 232]	< 1 µM	> 20 µM
FC(F)(F)Oc1ccc(OC2CCN(c3ccc4nc(NCCCN5CCOCC5)[nH]c4c3)C2)cc1 (stereo not shown) [Compound 142]	< 1 µM	10 to 20 µM
COc1nc(Oc2ccc(CNc3nc4ccc(N)cc4n3C)cc2)ncc1Cl [Compound 454]	< 1 µM	10 to 20 µM
Cc1cc(Nc2ccc3nc(NCc4ccc(Oc5ncc(-c6ccc(Cl)cc6)cn5)cc4)n(C)c3c2)n[nH]1 [Compound 467]	< 1 µM	< 10 µM
Cn1c(NCc2ccc(Oc3ncc(Cl)cn3)cc2)nc2ccc(NCc3ncccn3)cc21 [Compound 365]	< 1 µM	< 10 µM

SMILES	IC50 (human 5-LOX)	EC50 [1]
Cc1cnc(Oc2ccc(CNc3nc4ccc(NC5COC5)cc4n3C)cc2)nc1 [Compound 349]	< 1 µM	< 10 µM
Clc1ccc(OC(CNc2nc3ccc(NC4COC4)cc3[nH]2)c2ccccc2)cc1 (stereo not shown) [Compound 180]	< 1 µM	< 10 µM
CC(Cc1ccc(Cl)cc1Cl)Nc1nc2cc(N)ccc2n1Cc1ccccc1 (stereo not shown) [Compound 144]	< 1 µM	10 to 20 µM
CC(c1ccc(Oc2ccc(Cl)cn2)cc1)n1c(N)nc2ccc(N)cc21 (stereo not shown) [Compound 247]	< 1 µM	< 10 µM
Cn1c(NCc2ccc(Oc3ncc4c(Cl)cccc4n3)cc2)nc2ccc(N)cc21 [Compound 434]	< 1 µM	< 10 µM
COCCN(Cc1ccc(Oc2ccc(Cl)cn2)cc1)c1nc2ccc(NC3COC3)cc2n1C [Compound 339]	< 1 µM	10 to 20 µM
FC(F)(F)Oc1ccc(OCCn2c(N3CCCC3)nc3cc(N4CCC4)ccc32)cc1 [Compound 85]	1 to 10 µM	> 20 µM
Cn1c(NCc2ccc(Oc3ccnc4cc(Cl)ccc34)cc2)nc2ccc(NC3COC3)cc21 [Compound 384]	< 1 µM	< 10 µM
CCN(CC)c1nc2cc(N)ccc2n1CCc1ccc(F)cc1 [Compound 47]	> 10 µM	> 20 µM
Cn1c(NCc2ccc(Oc3nccc4cc(Cl)ccc34)cc2)nc2ccc(N)cc21 [Compound 438]	< 1 µM	10 to 20 µM
Nc1ccc2[nH]c(NCc3ccc(F)cc3)nc2c1 [Compound 28]	< 1 µM	10 to 20 µM
CCN(c1ccc2nc(NCc3ccc(Oc4ccc(Cl)cn4)cc3)n(C)c2c1)C1COC1 [Compound 278]	< 1 µM	< 10 µM
Fc1ccc(OC2CCN(c3nc4cc(NC5COC5)ccc4[nH]3)CC2)cc1 [Compound 36]	< 1 µM	10 to 20 µM
Nc1ccc2nc(NCc3ccc(C(O)c4ccccn4)cc3)[nH]c2c1 (stereo not shown) [Compound 139]	< 1 µM	> 20 µM
Cn1c(NCc2ccc(Oc3nc4cc(Cl)ccc4o3)cc2)nc2ccc(N)cc21 [Compound 402]	< 1 µM	< 10 µM
Cn1c(NCc2ccc(Oc3cnc(Cl)cn3)cc2)nc2ccc(N)cc21 [Compound 295]	< 1 µM	< 10 µM
Nc1ccc2nc(NCC(Oc3ccc(Cl)cc3)c3ccccc3)[nH]c2c1 (stereo not shown) [Compound 169]	< 1 µM	< 10 µM
Cc1cc(CNc2nc3ccc(NC4COC4)cc3n2C)ccc1Oc1ccc(Cl)cn1 [Compound 283]	< 1 µM	< 10 µM
Cn1c(N2CCC(COc3ccc(Cl)cc3)CC2)nc2ccc(N)cc21 [Compound 163]	< 1 µM	> 20 µM

SMILES	IC50 (human 5-LOX)	EC50 [1]
Nc1ccc2c(c1)nc(N1CCCC1)n2CCc1ccc(F)cc1 [Compound 50]	1 to 10 µM	10 to 20 µM
Cn1c(NCc2ccc(Oc3ncc(Cl)cn3)cc2)nc2ccc(NC3CSC3)cc21 [Compound 366]	< 1 µM	< 10 µM
Cn1c(NCc2ccc(Oc3cn4ccc(Cl)cc4n3)cc2)nc2ccc(N)cc21 [Compound 442]	< 1 µM	< 10 µM
CN(C)CCn1c(NCc2ccc(Oc3ccc(Cl)cn3)cc2)nc2ccc(NC3COC3)cc21 [Compound 332]	< 1 µM	< 10 µM
Cn1c(NCc2ccc(Oc3ncc(N)cn3)cc2)nc2ccc(N)cc21 [Compound 376]	< 1 µM	> 20 µM
Cn1nccc1-c1ccc(CNc2nc3cc(N)ccc3[nH]2)cc1 [Compound 200]	< 1 µM	< 10 µM
Cn1c(NCc2ccc(Oc3ccc4cc(Cl)ccc4n3)cc2)nc2ccc(N)cc21 [Compound 389]	< 1 µM	< 10 µM
Cn1c(NCc2ccc(C(=O)Nc3ccc(Cl)cn3)cc2)nc2ccc(N)cc21 [Compound 310]	< 1 µM	> 20 µM
Cc1cc(Oc2ncc(Cl)cn2)cc(C)c1CNc1nc2ccc(N)cc2n1C [Compound 385]	< 1 µM	10 to 20 µM
Cn1c(NCc2ccc(Oc3ncc4cccc(Cl)c4n3)cc2)nc2ccc(N)cc21 [Compound 436]	< 1 µM	< 10 µM
Cc1cc(Oc2ccc(Cl)cn2)cc(C)c1CNc1nc2ccc(NC3COC3)cc2n1C [Compound 335]	< 1 µM	< 10 µM
Nc1ccc2nc(N3CCC(C(=O)c4ccc(OC(F)(F)F)cc4)C3)[nH]c2c1 (stereo not shown) [Compound 178]	< 1 µM	10 to 20 µM
Nc1cc(Cl)c2nc(N3CCCC3)n(CCOc3ccc(OC(F)(F)F)cc3)c2c1 [Compound 89]	< 1 µM	> 20 µM
Nc1nc2ccc(N3CC(F)(F)C3)cc2n1Cc1ccc(Oc2ccc(Cl)cn2)cc1 [Compound 235]	> 10 µM	< 10 µM
Nc1cnc2c(c1)nc(N1CCCC1)n2CCOc1ccc(OC(F)(F)F)cc1 [Compound 72]	> 10 µM	> 20 µM
Cn1c(NCc2ccc(Oc3ncc(Cl)c(C4CC4)n3)cc2)nc2ccc(NC3COC3)cc21 [Compound 398]	< 1 µM	< 10 µM
Cn1c(NCc2ccc(Oc3ncc4cccc(Cl)c4n3)cc2)nc2ccc(NC3COC3)cc21 [Compound 437]	< 1 µM	< 10 µM
CCOC(=O)CNc1nc2ccc(N)cc2n1Cc1ccc(Oc2ccc(Cl)cc2)cc1 [Compound 207]	< 1 µM	< 10 µM
